≈ marks a conversion by molar mass, not a printed value.
Key:
[1] = system: Staphylococcus epidermidis 270; assay: broth micro-dilution MIC; type: cell-based
Experimental: (§1) The formula I compounds have in vitro and in vivo activity against Gram-positive pathogenic bacteria. The MIC's were determined using a standard broth micro-dilution assay.

[2] = system: Streptococcus pneumoniae P1; assay: broth micro-dilution MIC; type: cell-based
Experimental: as §1

[3] = system: Staphylococcus haemolyticus 105; assay: broth micro-dilution MIC; type: cell-based
Experimental: as §1

Entercoccus faecium 180 = assay: broth micro-dilution MIC; type: cell-based; settings: Entercoccus faecium 180
Experimental: as §1

[4] = system: Enterococcus gallinarum 245; assay: broth micro-dilution MIC; type: cell-based; settings: Enterococcus gallinarum 245
Experimental: as §1

[5] = system: Staphylococcus aureus SA1199A; assay: broth micro-dilution MIC; type: cell-based
Experimental: (§2) The MIC's were determined using a standard broth micro-dilution assay.

[6] = system: Staphylococcus aureus SA1199; assay: broth micro-dilution MIC; type: cell-based
Experimental: as §2

[7] = system: Streptococcus pyogenes C203; assay: broth micro-dilution MIC; type: cell-based
Experimental: as §2

Entercoccus faecium 276 = assay: broth micro-dilution MIC; type: cell-based
Experimental: as §2

[8] = system: Staphylococcus aureus 446; assay: broth micro-dilution MIC; type: cell-based
Experimental: as §2

[9] = system: Staphylococcus aureus 489; assay: broth micro-dilution MIC; type: cell-based
Experimental: as §2

[10] = system: Staphylococcus aureus 491; assay: broth micro-dilution MIC; type: cell-based
Experimental: as §2

[11] = system: Entercoccus faecium 180-1; assay: broth micro-dilution MIC; type: cell-based
Experimental: as §2

[12] = system: Staphylococcus aureus X400; assay: broth micro-dilution MIC; type: cell-based
Experimental: as §2

[13] = system: Staphylococcus aureus 447; assay: broth micro-dilution MIC; type: cell-based
Experimental: as §2

[14] = system: vancomycin-susceptible enterococci; assay: broth micro-dilution, mean geometric MIC; type: cell-based, Enterococcus faecium and Enterococcus faecalis; settings: enterococci, 24-hour incubation
[15] = system: Staphylococcus aureus S13E; type: cell-based
Experimental: as §2

[16] = system: Staphylococcus aureus SA1199B; type: cell-based
Experimental: as §2

[17] = system: vancomycin-resistant enterococci; assay: broth micro-dilution, mean geometric MIC; type: cell-based, Enterococcus faecium and Enterococcus faecalis; settings: enterococci, 24-hour incubation
[18] = system: Staphylococcus haemolyticus 415; assay: broth micro-dilution MIC; type: cell-based
Experimental: as §1

Entercoccus faecium 2041 = assay: broth micro-dilution MIC; type: cell-based; settings: Entercoccus faecium 2041
Experimental: as §1

[19] = system: Staphylococcus aureus X778; assay: broth micro-dilution MIC; type: cell-based
Experimental: as §2

Structure (SMILES) | MIC [1] | MIC [2] | MIC [3] | MIC (Entercoccus faecium 180) | MIC [4] | MIC [5] | MIC [6] | MIC [7] | MIC (Entercoccus faecium 276) | MIC [8] | MIC [9] | MIC [10] | MIC [11] | MIC [12] | MIC [13] | mean geometric MIC, Vancomycin Sensitive Strains [14] | MIC [15] | MIC [16] | mean geometric MIC, Vancomycin Resistant Strains [17] | MIC [18] | further results
C=CCOc1ccc(CNC2(C)CC(OC3C(Oc4c5cc6cc4Oc4ccc(cc4Cl)C(OC4CC(C)(N)C(O)C(C)O4)C4NC(=O)C(NC(=O)C6NC(=O)C(CC(N)=O)NC(=O)C(NC(=O)C(CC(C)C)NC)C(O)c6ccc(c(Cl)c6)O5)c5ccc(O)c(c5)-c5c(O)cc(O)cc5C(C(=O)O)NC4=O)OC(CO)C(O)C3O)OC(C)C2O)cc1 (stereo not shown) [Compound 7] | 4 µg/mL (≈ 2.3 µM) | ≤ 0.06 µg/mL | 8 µg/mL (≈ 4.6 µM) | 2 µg/mL (≈ 1.15 µM) | 0.5 µg/mL (≈ 0.288 µM) | ≤ 0.06 µg/mL | 4 µg/mL (≈ 2.3 µM) | ≤ 0.06 µg/mL | 1 µg/mL (≈ 0.575 µM) | 8 µg/mL (≈ 4.6 µM) | 2 µg/mL (≈ 1.15 µM) | 2 µg/mL (≈ 1.15 µM) | ≤ 0.06 µg/mL | 1 µg/mL (≈ 0.575 µM) | 4 µg/mL (≈ 2.3 µM) | 0.43 µg/mL | 2 µg/mL (≈ 1.15 µM) | 1 µg/mL (≈ 0.575 µM) | 2.8 µg/mL |  | 
CNC(CC(C)C)C(=O)NC1C(=O)NC(CC(N)=O)C(=O)NC2C(=O)NC3C(=O)NC(C(=O)NC(C(=O)O)c4cc(O)cc(O)c4-c4cc3ccc4O)C(OC3CC(C)(N)C(O)C(C)O3)c3ccc(c(Cl)c3)Oc3cc2cc(c3OC2OC(CO)C(O)C(O)C2OC2CC(C)(NCc3ccc(-c4ccccc4)s3)C(O)C(C)O2)Oc2ccc(cc2Cl)C1O (stereo not shown) [Compound 67] | 0.5 µg/mL (≈ 0.283 µM) | ≤ 0.06 µg/mL |  |  | 2 µg/mL (≈ 1.13 µM) | ≤ 0.06 µg/mL | 1 µg/mL (≈ 0.567 µM) |  | ≤ 0.06 µg/mL |  | ≤ 0.06 µg/mL | 1 µg/mL (≈ 0.567 µM) | ≤ 0.06 µg/mL | 1 µg/mL (≈ 0.567 µM) | 1 µg/mL (≈ 0.567 µM) | 0.16 µg/mL |  | 1 µg/mL (≈ 0.567 µM) | 1.7 µg/mL | 2 µg/mL (≈ 1.13 µM) | MIC (Entercoccus faecium 2041): ≤ 0.06 µg/mL
CNC(CC(C)C)C(=O)NC1C(=O)NC(CC(N)=O)C(=O)NC2C(=O)NC3C(=O)NC(C(=O)NC(C(=O)O)c4cc(O)cc(O)c4-c4cc3ccc4O)C(OC3CC(C)(N)C(O)C(C)O3)c3ccc(cc3)Oc3cc2cc(c3OC2OC(CO)C(O)C(O)C2OC2CC(C)(NCc3ccc(-c4ccccc4)cc3)C(O)C(C)O2)Oc2ccc(cc2Cl)C1O (stereo not shown) [Compound 182] |  | ≤ 0.06 µg/mL | 2 µg/mL (≈ 1.16 µM) | 2 µg/mL (≈ 1.16 µM) | 1 µg/mL (≈ 0.58 µM) | ≤ 0.06 µg/mL | 2 µg/mL (≈ 1.16 µM) | ≤ 0.06 µg/mL | 1 µg/mL (≈ 0.58 µM) | 2 µg/mL (≈ 1.16 µM) | 2 µg/mL (≈ 1.16 µM) | 1 µg/mL (≈ 0.58 µM) | ≤ 0.06 µg/mL | 1 µg/mL (≈ 0.58 µM) |  |  |  | 4 µg/mL (≈ 2.32 µM) | 13 µg/mL | 4 µg/mL (≈ 2.32 µM) | MIC (Entercoccus faecium 2041): 1 µg/mL (≈ 0.58 µM); MIC [19]: 2 µg/mL (≈ 1.16 µM)
CNC(CC(C)C)C(=O)NC1C(=O)NC(CC(N)=O)C(=O)NC2C(=O)NC3C(=O)NC(C(=O)NC(C(=O)O)c4cc(O)cc(O)c4-c4cc3ccc4O)C(OC3CC(C)(N)C(O)C(C)O3)c3ccc(c(Cl)c3)Oc3cc2cc(c3OC2OC(CO)C(O)C(O)C2OC2CC(C)(NCc3ccc(-c4ccc(C(F)(F)F)cc4)cc3)C(O)C(C)O2)Oc2ccc(cc2Cl)C1O (stereo not shown) [Compound 216] |  | ≤ 0.06 µg/mL | 0.5 µg/mL (≈ 0.274 µM) | ≤ 0.06 µg/mL |  | 1 µg/mL (≈ 0.547 µM) | ≤ 0.06 µg/mL | ≤ 0.06 µg/mL | 0.5 µg/mL (≈ 0.274 µM) | 1 µg/mL (≈ 0.547 µM) | 1 µg/mL (≈ 0.547 µM) | 1 µg/mL (≈ 0.547 µM) | ≤ 0.06 µg/mL | 1 µg/mL (≈ 0.547 µM) | 1 µg/mL (≈ 0.547 µM) | 0.032 µg/mL | 1 µg/mL (≈ 0.547 µM) | 0.5 µg/mL (≈ 0.274 µM) | 0.35 µg/mL |  | 
